Reference: ChEMBL document CHEMBL1158219, “Cell-based screen for identification of inhibitors of tubulin polymerization” (J Nat Prod, 1996)
Calls of active or inactive are those of the source. The rule behind the calls is not given here. *1 amine or outer side, *2 acyl side, *3 side chain or, on linkers, in order; H or OH if unused. Where a SMILES comes first, the peptide text is derived from it. Bridges are numbered along the chain shown (N, C = ends). Roman numbers before positions name the chains, in order. [ ]: non-standard residue; d: D form. Actinocin(9to1) = Cc1c2oc3c(C)ccc(C(=O)[*:1])c3nc-2c(C(=O)[*:2])c(N)c1=O; NMeV = CN[C@H](C(=O)O)C(C)C; Sar = CNCC(=O)O

Experiments:
C6 [1] = assay: Cytotoxicity against rat C6 cells assessed as cell release at 50 ug/mL to 2.5 mg/mL after 5 hrs by MTT assay in absence of db-cAMP; type: functional, cell-based
C6 [2] = assay: Cytotoxicity against rat C6 cells at 50 ug/mL to 2.5 mg/mL after 3 days treated 4 hrs before db-cAMP challenge by MTT assay; type: functional, cell-based
C6 [3] = assay: Inhibition of tubulin polymerization in rat C6 cells at 50 ug/mL to 2.5 mg/mL after 4 hrs; type: cell-based
C6 [4] = assay: Cytotoxicity against rat C6 cells after 3 days treated 4 hrs before db-cAMP challenge by MTT assay; type: functional; details: read-out: LC50 (the source's name)
[5] = Inhibition of tubulin polymerization in rat C6 cells after 4 hrs; type: cell-based

SMILES | Activity (C6 [1]) | Activity (C6 [2]) | Activity (C6 [3]) | CC50 (C6 [4]) | EC50 [5]
O=NN(CCCl)C(=O)NCCCl | inactive | inactive | inactive | – | –
COc1cccc2c1C(=O)c1c(O)c3c(c(O)c1C2=O)C[C@@](O)(C(C)=O)C[C@@H]3O[C@H]1C[C@H](N)[C@H](O)[C@H](C)O1 | inactive | inactive | inactive | – | –
COc1cc([C@@H]2c3cc4c(cc3[C@@H](O[C@@H]3O[C@@H]5CO[C@@H](c6cccs6)O[C@H]5[C@H](O)[C@H]3O)[C@H]3COC(=O)[C@H]23)OCO4)cc(OC)c1O | inactive | inactive | inactive | – | –
COc1cccc2c1C(=O)c1c(O)c3c(c(O)c1C2=O)C[C@@](O)(C(=O)CO)C[C@@H]3O[C@H]1C[C@H](N)[C@H](O)[C@H](C)O1 | inactive | inactive | inactive | – | –
C=CC[C@@H](CC/C(C)=C/C=C/CC/C=C\[C@@H]1CSC([C@@H]2C[C@@H]2C)=N1)OC [CURACIN A] | inactive | – | – | 11 nM | 510 nM
N[C@@H](Cc1ccc(N(CCCl)CCCl)cc1)C(=O)O | inactive | inactive | inactive | – | –
CC[C@]1(O)C[C@@H]2CN(CCc3c([nH]c4ccccc34)[C@@](C(=O)OC)(c3cc4c(cc3OC)N(C)[C@H]3[C@@](O)(C(=O)OC)[C@H](OC(C)=O)[C@]5(CC)C=CCN6CC[C@]43[C@@H]65)C2)C1 [VINBLASTINE] | inactive | – | – | 66 nM | 8200 nM
COc1cc2c(c(OC)c1OC)-c1ccc(OC)c(=O)cc1[C@@H](NC(C)=O)CC2 [COLCHICINE] | inactive | – | – | 200 nM | 100 nM
CC[C@]1(O)C[C@H]2CN(CCc3c([nH]c4ccccc34)[C@@](C(=O)OC)(c3cc4c(cc3OC)N(C=O)[C@H]3[C@@](O)(C(=O)OC)[C@H](OC(C)=O)[C@]5(CC)C=CCN6CC[C@]43[C@@H]65)C2)C1 [VINCRISTINE] | inactive | – | – | 320 nM | 6200 nM
O=C1c2c(O)ccc(O)c2C(=O)c2c(NCCNCCO)ccc(NCCNCCO)c21 | inactive | inactive | inactive | – | –
Cc1c2oc3c(C)ccc(C(=O)N[C@@H]4C(=O)N[C@H](C(C)C)C(=O)N5CCC[C@H]5C(=O)N(C)CC(=O)N(C)[C@@H](C(C)C)C(=O)O[C@@H]4C)c3nc-2c(C(=O)N[C@@H]2C(=O)N[C@H](C(C)C)C(=O)N3CCC[C@H]3C(=O)N(C)CC(=O)N(C)[C@@H](C(C)C)C(=O)O[C@@H]2C)c(N)c1=O (I: T[dV]P[Sar][NMeV] / II: T[dV]P[Sar][NMeV]; ester I:1-I:C, II:1-II:C; linker I:N-II:N via Actinocin(9to1)) | inactive | inactive | inactive | – | –
C[C@@H]1C[C@@H]([C@H](O)CC2CC(=O)NC(=O)C2)C(=O)[C@@H](C)C1 | inactive | inactive | inactive | – | –
CN(N=O)C(=O)N[C@@H](C=O)[C@@H](O)[C@H](O)[C@H](O)CO | inactive | inactive | inactive | – | –
Clc1ccc(C(c2ccccc2Cl)C(Cl)Cl)cc1 (stereo not drawn) | inactive | inactive | inactive | – | –
CO[C@@]12[C@H](COC(N)=O)C3=C(C(=O)C(C)=C(N)C3=O)N1C[C@@H]1N[C@@H]12 | inactive | inactive | inactive | – | –
C=C1[C@@H](C)[C@H]2[C@H](Cc3ccccc3)NC(=O)[C@]23OC(=O)/C=C/[C@H](O)CCC[C@@H](C)C/C=C/[C@H]3[C@@H]1O | inactive | inactive | inactive | – | –
COc1cc([C@@H]2c3cc4c(cc3[C@@H](O[C@@H]3O[C@@H]5CO[C@@H](C)O[C@H]5[C@H](O)[C@H]3O)[C@H]3COC(=O)[C@H]23)OCO4)cc(OC)c1O [ETOPOSIDE] | inactive | – | – | 120 nM | 680000 nM
CC(=O)O[C@H]1C(=O)[C@@]2(C)[C@H]([C@H](OC(=O)c3ccccc3)[C@]3(O)C[C@H](OC(=O)[C@H](O)[C@@H](NC(=O)c4ccccc4)c4ccccc4)C(C)=C1C3(C)C)[C@]1(OC(C)=O)CO[C@@H]1C[C@@H]2O [PACLITAXEL] | – | – | – | 23 nM | –
CCn1cc(C(=O)O)c(=O)c2ccc(C)nc21 | inactive | inactive | inactive | – | –
CO[C@@H]1[C@@H](OC(N)=O)[C@@H](O)[C@H](Oc2ccc3c(O)c(NC(=O)c4ccc(O)c(CC=C(C)C)c4)c(=O)oc3c2C)OC1(C)C | inactive | inactive | inactive | – | –
